{"source": "paper PMC12274840", "about": "(The Journal of Biological Chemistry, 2025)", "key": {"[1]": {"test_system": "E. coli KA797 cells carrying BlaC position 105 library", "format": "cell-based, Escherichia coli", "conditions": "for Fi AVG (average fitness): average of replicates"}, "[2]": {"test_system": "E. coli KA797 cells carrying pUK21 with BlaC I105R", "format": "cell-based, Escherichia coli", "conditions": "in combination with 100 μg/ml carbenicillin"}, "[3]": {"test_system": "E. coli KA797 cells carrying pUK21 with CTX-M-14 WT (Tat)", "assay": "microbe, parasite or virus in culture", "format": "cell-based", "conditions": "in combination with 100 μg/ml carbenicillin"}, "[4]": {"test_system": "E. coli KA797 cells carrying pUK21 with TEM-1 Y105R", "format": "cell-based, Escherichia coli", "conditions": "in combination with 100 μg/ml carbenicillin"}, "[5]": {"test_system": "E. coli KA797 cells carrying pUK21 with BlaC I105G", "format": "cell-based, Escherichia coli", "conditions": "in combination with 100 μg/ml carbenicillin"}, "[6]": {"test_system": "E. coli KA797 cells carrying CTX-M-14 position 105 library", "format": "cell-based"}, "BlaC WT": {"target": "T1, BlaC WT (Mycobacterium tuberculosis, UniProt P9WKD3)", "T1 construct": "correspond to residue numbers 41-307 of BlaC (Uniprot entry P9WKD3-1); His tag with TEV cleavage site (N); made in house; host or cells: E. coli BL21 (DE3) pLysS", "T1 sequence (P9WKD3 41-307)": "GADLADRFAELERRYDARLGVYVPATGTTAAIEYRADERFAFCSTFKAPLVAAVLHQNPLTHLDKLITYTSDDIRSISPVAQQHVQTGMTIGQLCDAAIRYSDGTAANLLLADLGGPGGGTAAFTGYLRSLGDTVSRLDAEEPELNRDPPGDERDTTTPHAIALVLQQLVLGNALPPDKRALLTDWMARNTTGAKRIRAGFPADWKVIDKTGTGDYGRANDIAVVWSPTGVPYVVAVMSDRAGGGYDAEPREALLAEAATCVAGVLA", "format": "biochemical"}, "[7]": {"test_system": "E. coli KA797 cells carrying pUK21 with BlaC WT (Tat)", "assay": "microbe, parasite or virus in culture", "format": "cell-based", "conditions": "in combination with 100 μg/ml carbenicillin"}, "[8]": {"test_system": "E. coli KA797 cells carrying pUK21 with CTX-M-14 Y105G", "format": "cell-based, Escherichia coli", "conditions": "in combination with 100 μg/ml carbenicillin"}, "[9]": {"test_system": "E. coli KA797 cells carrying pUK21 with TEM-1 Y105G", "format": "cell-based, Escherichia coli", "conditions": "in combination with 100 μg/ml carbenicillin"}, "[10]": {"test_system": "E. coli KA797 cells carrying pUK21 with KPC-2 (Tat)", "assay": "microbe, parasite or virus in culture", "format": "cell-based", "conditions": "in combination with 100 μg/ml carbenicillin"}, "TEM-1 Y105G": {"target": "TEM-1 Y105G (Escherichia coli, UniProt P62593, Y103G)", "assay": "In vitro inhibition of nitrocefin hydrolysis and simulation of inhibition curves, TEM-1 Y105G", "format": "biochemical", "conditions": "clavulanic acid, simulation Eq 2/8"}, "[11]": {"test_system": "E. coli KA797 cells carrying pUK21 with NmcA (pelB/Sec)", "assay": "microbe, parasite or virus in culture", "format": "cell-based", "conditions": "in combination with 25 μg/ml carbenicillin"}, "[12]": {"test_system": "E. coli KA797 cells carrying pUK21 with TEM-1 WT (Sec)", "assay": "microbe, parasite or virus in culture", "format": "cell-based", "conditions": "in combination with 100 μg/ml carbenicillin"}, "TEM-1 WT": {"target": "TEM-1 WT (Escherichia coli, UniProt P62593)", "format": "biochemical", "design": "24 to 286 of TEM-1 (P62593); His tag with TEV cleavage site (N); made in house; host or cells: E. coli BL21 (DE3) pLysS", "conditions": "clavulanic acid, TEM-1 WT"}, "[13]": {"test_system": "E. coli KA797 cells carrying pUK21 with CTX-M-14 Y105R", "format": "cell-based, Escherichia coli", "conditions": "in combination with 100 μg/ml carbenicillin"}}, "note": "“And” between values parts separate entries of the source, which are not always exact repeats. Identical values can stand only once. Like-named read-outs stand apart in the source and are kept apart here.", "data": [{"smiles": "O=C(O)[C@H]1/C(=C/CO)O[C@@H]2CC(=O)N21", "note": "[clavulanic acid]", "values": [{"measurement": "Significance of average fitness", "setting": "[1]; AA 105 Ala (BlaC I105A)", "result": "+"}, {"measurement": "Fi AVG (average fitness)", "setting": "[1]; AA 105 Ala (BlaC I105A), relative to WT Ile", "result": 0.441}, {"measurement": "Significance of average fitness", "setting": "[1]; AA 105 Arg (BlaC I105R)", "result": "+"}, {"measurement": "Fi AVG (average fitness)", "setting": "[1]; AA 105 Arg (BlaC I105R), relative to WT Ile", "result": 0.649}, {"measurement": "Fi AVG (average fitness)", "setting": "[1]; AA 105 Asn (BlaC I105N), relative to WT Ile", "result": -0.00565}, {"measurement": "Fi AVG (average fitness)", "setting": "[1]; AA 105 Asp (BlaC I105D), relative to WT Ile", "result": -0.195}, {"measurement": "Fi AVG (average fitness)", "setting": "[1]; AA 105 Cys (BlaC I105C), relative to WT Ile", "result": 0.048}, {"measurement": "Fi AVG (average fitness)", "setting": "[1]; AA 105 Gln (BlaC I105Q), relative to WT Ile", "result": -0.027}, {"measurement": "Fi AVG (average fitness)", "setting": "[1]; AA 105 Glu (BlaC I105E), relative to WT Ile", "result": -0.066}, {"measurement": "Significance of average fitness", "setting": "[1]; AA 105 Gly (BlaC I105G)", "result": "+"}, {"measurement": "Fi AVG (average fitness)", "setting": "[1]; AA 105 Gly (BlaC I105G), relative to WT Ile", "result": 0.325}, {"measurement": "Fi AVG (average fitness)", "setting": "[1]; AA 105 His (BlaC I105H), relative to WT Ile", "result": 0.091}, {"measurement": "Fi AVG (average fitness)", "setting": "[1]; AA 105 Ile (BlaC WT, reference)", "result": 0.000}, {"measurement": "Fi AVG (average fitness)", "setting": "[1]; AA 105 Leu (BlaC I105L), relative to WT Ile", "result": 0.152}, {"measurement": "Fi AVG (average fitness)", "setting": "[1]; AA 105 Lys (BlaC I105K), relative to WT Ile", "result": 0.212}, {"measurement": "Fi AVG (average fitness)", "setting": "[1]; AA 105 Met (BlaC I105M), relative to WT Ile", "result": 0.159}, {"measurement": "Significance of average fitness", "setting": "[1]; AA 105 Phe (BlaC I105F)", "result": "+"}, {"measurement": "Fi AVG (average fitness)", "setting": "[1]; AA 105 Phe (BlaC I105F), relative to WT Ile", "result": 0.271}, {"measurement": "Fi AVG (average fitness)", "setting": "[1]; AA 105 Pro (BlaC I105P), relative to WT Ile", "result": 0.200}, {"measurement": "Significance of average fitness", "setting": "[1]; AA 105 Ser (BlaC I105S)", "result": "+"}, {"measurement": "Fi AVG (average fitness)", "setting": "[1]; AA 105 Ser (BlaC I105S), relative to WT Ile", "result": 0.440}, {"measurement": "Significance of average fitness", "setting": "[1]; AA 105 Thr (BlaC I105T)", "result": "+"}, {"measurement": "Fi AVG (average fitness)", "setting": "[1]; AA 105 Thr (BlaC I105T), relative to WT Ile", "result": 0.421}, {"measurement": "Fi AVG (average fitness)", "setting": "[1]; AA 105 Trp (BlaC I105W), relative to WT Ile", "result": 0.208}, {"measurement": "Significance of average fitness", "setting": "[1]; AA 105 Tyr (BlaC I105Y)", "result": "+"}, {"measurement": "Fi AVG (average fitness)", "setting": "[1]; AA 105 Tyr (BlaC I105Y), relative to WT Ile", "result": 0.298}, {"measurement": "Fi AVG (average fitness)", "setting": "[1]; AA 105 Val (BlaC I105V), relative to WT Ile", "result": 0.071}, {"measurement": "WT abs Fi 1", "setting": "[1]; absolute fitness of BlaC WT (Ile 105), replicate 1", "result": -0.077}, {"measurement": "WT abs Fi 2", "setting": "[1]; absolute fitness of BlaC WT (Ile 105), replicate 2", "result": 0.311}, {"measurement": "MIC of inhibitor", "setting": "[2]", "result": 4, "unit": "µg/mL"}, {"measurement": "MIC of inhibitor", "setting": "[3]", "result": 1, "unit": "µg/mL"}, {"measurement": "MIC of inhibitor", "setting": "[4]", "result": 2, "unit": "µg/mL"}, {"measurement": "MIC of inhibitor", "setting": "[5]", "result": 1, "unit": "µg/mL"}, {"measurement": "Significance of average fitness", "setting": "[6]; CTX-M-14 AA 105 Arg", "result": "-"}, {"measurement": "Significance of average fitness", "setting": "[6]; CTX-M-14 AA 105 Gly", "result": "+"}, {"measurement": "Significance of average fitness", "setting": "[6]; CTX-M-14 AA 105 Trp", "result": "+"}, {"measurement": "WT abs Fi 1 (absolute fitness of wild type, Replicate 1)", "setting": "[6]; CTX-M-14 WT (Tyr 105)", "result": -0.544}, {"measurement": "WT abs Fi 2 (absolute fitness of wild type, Replicate 2)", "setting": "[6]; CTX-M-14 WT (Tyr 105)", "result": -0.635}, {"measurement": "k1", "setting": "BlaC WT", "result": 1, "unit": "µM⁻¹ s⁻¹"}, {"measurement": "k2", "setting": "BlaC WT", "result": "4.5 and 4.5 10^−2 s^−1"}, {"measurement": "k3", "setting": "BlaC WT", "result": 1.8}, {"measurement": "MIC of inhibitor", "setting": "[7]", "result": 0.5, "unit": "µg/mL"}, {"measurement": "MIC of inhibitor", "setting": "[8]", "result": 1, "unit": "µg/mL"}, {"measurement": "MIC of inhibitor", "setting": "[9]", "result": 32, "unit": "µg/mL"}, {"measurement": "MIC of inhibitor", "setting": "[10]", "result": 1, "unit": "µg/mL"}, {"measurement": "k2", "setting": "TEM-1 Y105G", "result": "9.6 10^−2 s^−1"}, {"measurement": "k3", "setting": "TEM-1 Y105G", "result": "3.1 10^−3 s^−1"}, {"measurement": "MIC of inhibitor", "setting": "[11]", "result": 2, "unit": "µg/mL"}, {"measurement": "MIC of inhibitor", "setting": "[12]", "result": 2, "unit": "µg/mL"}, {"measurement": "k2", "setting": "TEM-1 WT; simulation Eq 2/8", "result": "8 10^−2 s^−1"}, {"measurement": "k3", "setting": "TEM-1 WT; simulation Eq 2/8", "result": "1.8 10^−3 s^−1"}, {"measurement": "k1", "setting": "TEM-1 WT; simulation Eq 8", "result": 0.9, "unit": "µM⁻¹ s⁻¹"}, {"measurement": "MIC of inhibitor", "setting": "[13]", "result": 1, "unit": "µg/mL"}]}]}
